Results reported in patent publication US11834432B2, “Substituted amino six-membered nitric heterocyclic ring compound and preparation and use thereof” (SHANGHAI INSTITUTE OF MATERIA MEDICA, CHINESE ACADEMY OF …, priority 2016, dated 2023).

Tests used:
[1] = target: FGFR1 kinase domain recombinant protein (Homo sapiens (Human), UniProt P11362); experiment: Inhibition of receptor tyrosine kinase FGFR1 activity (ELISA); assay type: biochemical; settings: for inhibition at 0.1 µM: 1 h, read-out: Inhibition ratio (%) @ 0.1 μM
Sequence of FGFR1 kinase domain recombinant protein (P11362 478-767): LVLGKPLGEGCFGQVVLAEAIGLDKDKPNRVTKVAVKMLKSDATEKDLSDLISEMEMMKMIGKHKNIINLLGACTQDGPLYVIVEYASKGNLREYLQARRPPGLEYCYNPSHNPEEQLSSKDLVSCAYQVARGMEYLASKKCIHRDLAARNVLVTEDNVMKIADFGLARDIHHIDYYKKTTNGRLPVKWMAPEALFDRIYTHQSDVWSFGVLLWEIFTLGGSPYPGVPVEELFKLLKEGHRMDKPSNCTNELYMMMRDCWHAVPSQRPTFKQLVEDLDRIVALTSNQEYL
Method: 1. Preliminary Evaluation Inhibition on Receptor Tyrosine Kinase FGFR1 Activity of Compound
1. […] The liquid from the well was discarded. The plate was washed for three times with T-PBS (0.1% Tween-20 in potassium-free PBS, 200 μL/well), 5 minutes for each time. The elisa plate was dried in 37° C. dryer for 1-2 hours.
2. 49 μL of ATP solution diluted in reaction buffer (50 mM HEPES pH 7.4, 50 mM MgCl2, 0.5 mM MnCl2, 0.2 mM Na3VO4, 1 mM DTT) was added into each well, and 1 μL of the test compound was added to each well, and then 50 μL of FGFR1 kinase domain recombinant protein diluted in reaction buffer was added to initiate the reaction, and two control wells without ATP were required for each experiment. The reaction was performed on a Shaker (100 rpm) at 37° C. for 1 hour. The liquid from the well was discarded, and the plate was washed with T-PBS for three times.
3. The antibody PY99 dilution (antibody diluted 1:500 in T-PBS with BSA 5 mg/mL) was added at 100 μL/well, and shaken for 0.5 hours on a 37° C. shaker. The liquid from the well was discarded, and the plate was washed with T-PBS for three times.
4. The horseradish peroxidase-labeled goat anti-mouse second antibody dilution (antibody diluted 1:2000 in T-PBS with BSA 5 mg/mL) was added at 100 μL/well, and shaken for 0.5 hours on a 37° C. shaker. The liquid from the well was discarded, and the plate was washed with T-PBS for three times.
5. 2 mg/mL OPD coloration solution (diluted with 0.1 M citric acid-sodium citrate buffer containing 0.03% H2O2 (pH=5.4)) was added at 100 μL/well, and reacted for 1-10 minutes at 25° C. in darkness.
6. The reaction was quenched with 50 μL/well of 2M H2SO4, and the plate was read using a tunable microplate microplate reader VERSAmax at 490 nm.
(§1) The IC50 values were obtained by four-parameter regression analysis using the software supplied with the microplate reader.

SNU16 cells = experiment: Inhibition of proliferation of SNU16 cells (CCK-8); assay type: cell-based; settings: Homo sapiens, SNU-16, 72 h; for inhibition at 0.01 µM: 10 nM; for inhibition at 0.01 µM / inhibition at 0.1 µM / inhibition at 1 µM: 72 h, read-out: Inhibition ratio (%); for inhibition at 0.1 µM: 100 nM; for inhibition at 1 µM: 1000 nM
Method: The inhibitory effect on proliferation of SNU16 cells of a compound was examined by CCK-8 Cell Counting Kit (Dojindo). The steps are as follows: SNUI 6 cells at Logarithmic growth phase were seeded in a 96-well culture plate at appropriate density, 90 ul for each well. After cultured overnight, different concentrations of drugs were added and treated for 72 h, while solvent control well was set (negative control). After 72 h, the influence of the compound on the proliferation of cells was observed by CCK-8 cell counting kit (Dojindo). 10 μL of CCK-8 reagent was added to each well. After incubated for 2-4 hours in a 37° C. incubator, the plate was read with SpectraMax 190 microplate reader at wavelength 450 nm.
as §1

[2] = test system: human gastric cancer SNU-16 subcutaneously transplanted tumor; experiment: Growth of subcutaneously transplanted tumor in human gastric cancer SNU-16 nude mice; assay type: in vivo
[3] = test system: human lung cancer NCI-H1581 subcutaneously transplanted tumor; experiment: Growth of subcutaneously transplanted tumor in human lung cancer NCI-H1581 nude mice
Method: The cell strain was inoculated in the right axilla of the nude mice, and the amount of cells inoculated was 5×10^6/mouse to form transplanted tumor, which was directly inoculated and used.
The tumor tissue in the prosperous growth period was cut into 1.5 mm^3, and inoculated subcutaneously in the right axilla of the nude mice under aseptic conditions. The diameter of the transplanted tumor in the nude mice was measured with a vernier caliper, and the animals were randomly grouped when the average volume of tumors was about 150-160 mm^3. […] The solvent control group was given an equal amount of water for injection. The diameter of the transplanted tumor was measured twice a week during the entire experiment, and the body weight of the mice was also weighed. The calculation formula of tumor volume (TV) is: TV=1/2×a×b^2, where a and b respectively represent the length and width of the tumor. The relative tumor volume (RTV) was calculated based on the measured results and the formula was: RTV=Vt/V0, where V0 is the tumor volume measured at grouping and dosing (d0), and Vt is the tumor volume at each measurement.

[4] = test system: human gastric cancer SNU-16 subcutaneously transplanted tumor; experiment: Growth of subcutaneously transplanted tumor in human gastric cancer SNU-16 nude mice; assay type: in vivo; remark: listed apart in the source
Method: The human gastric cancer SNU-16 cell strain was preserved in our laboratory.
S10 groups (30 mg/kg and 10 mg/kg) were orally administered once a day for 21 days; AZD4547 group (10 mg/kg) was administered orally once a day for 21 days; solvent control group was given the same amount of water for injection.

## CNC(=O)c1cccc2cc(Oc3ccnc(NC(=O)c4ccc(CN5CCN(C)CC5)c(C(F)(F)F)c4)c3)ccc12 [Compound S12]
[1]
  IC50: < 1000 nM
  inhibition at 0.1 µM: 44%

## CNC(=O)c1cccc2cc(Oc3ccnc(NC(=O)c4ccc(N5CC(C)OC(C)C5)cc4)c3)ccc12 (centres unmarked) [Compound S8]
SNU16 cells
  inhibition at 0.01 µM: 23.2%
  inhibition at 0.1 µM: 36.3%
  inhibition at 1 µM: 48.1%
[1]
  IC50: < 10 nM
  inhibition at 0.1 µM: 93%

## CNC(=O)c1cccc2cc(Oc3ccnc(NC(=O)c4ccc(N5C[C@@H](C)N[C@@H](C)C5)cc4F)c3)ccc12 [Compound S13]
[1]
  IC50: > 1000 nM
  inhibition at 0.1 µM: 23%

## CNC(=O)c1cccc2cc(Oc3ccnc(NC(=O)c4ccc(N5C[C@@H](C)N[C@@H](C)C5)cc4C)c3)ccc12 [Compound S15]
[1]
  IC50: < 100 nM
  inhibition at 0.1 µM: 71%

## CNC(=O)c1cccc2cc(Oc3ccnc(NC(=O)c4ccc(C5CCNCC5)cc4)c3)ccc12 [Compound S6]
SNU16 cells
  IC50: 15.9 nM
  inhibition at 0.01 µM: 45.1%
  inhibition at 0.1 µM: 63.5%
  inhibition at 1 µM: 59.6%
[1]
  IC50: < 10 nM
  inhibition at 0.1 µM: 84%

## CNC(=O)c1cccc2cc(Oc3ccnc(NC(=O)c4ccc(OCCN5CCCC5)cc4)c3)ccc12 [Compound S4]
SNU16 cells
  IC50: 29.2 nM
  inhibition at 0.01 µM: 55.3%
  inhibition at 0.1 µM: 61%
  inhibition at 1 µM: 59%
[1]
  IC50: < 10 nM
  inhibition at 0.1 µM: 74%

## CNC(=O)c1cccc2cc(Oc3ccnc(NC(=O)c4cnn(CCO)c4)c3)ccc12 [Compound S19]
[1]
  IC50: < 10 nM
  inhibition at 0.1 µM: 86%

## CNC(=O)c1cccc2cc(Oc3ccnc(NC(=O)c4ccc(NCC5(O)CCOCC5)cc4)c3)ccc12 [Compound S23]
[1]
  IC50: < 10 nM
  inhibition at 0.1 µM: 86%

## CNC(=O)c1cccc2cc(Oc3ccnc(NC(=O)c4ccc(N5CCN(CCO)CC5)cc4)c3)ccc12 [Compound S11]
[1]
  IC50: < 10 nM
  inhibition at 0.1 µM: 89%

## CNC(=O)c1cccc2cc(Oc3ccnc(NC(=O)c4csc(N5CCN(C)CC5)n4)c3)ccc12 [Compound S17]
[1]
  IC50: < 100 nM
  inhibition at 0.1 µM: 59%

## CNC(=O)c1cccc2cc(Oc3ccnc(NC(=O)c4ccc(N5CCNC(C)C5)cc4)c3)ccc12 (centres unmarked) [Compound S9]
SNU16 cells
  IC50: 13.8 nM
  inhibition at 0.01 µM: 70.9%
  inhibition at 0.1 µM: 73.2%
  inhibition at 1 µM: 73.3%
[1]
  IC50: < 10 nM
  inhibition at 0.1 µM: 95%

## CNC(=O)c1cccc2cc(Oc3ccnc(NC(=O)c4ccc(OCC5(N)CC5)cc4)c3)ccc12 [Compound S3]
[1]
  IC50: < 10 nM
  inhibition at 0.1 µM: 90%

## CNC(=O)c1cccc2cc(Oc3ccnc(NC(=O)c4ccc(N5CCOCC5)cc4)c3)ccc12 [Compound S7]
SNU16 cells
  inhibition at 0.01 µM: 30.1%
  inhibition at 0.1 µM: 53.3%
  inhibition at 1 µM: 60.5%
[1]
  IC50: < 10 nM
  inhibition at 0.1 µM: 91%

## CNC(=O)c1cccc2cc(Oc3ccnc(NC(=O)c4cnc(N5C[C@@H](C)N[C@@H](C)C5)nc4)c3)ccc12 [Compound S16]
SNU16 cells
  inhibition at 0.01 µM: 26.4%
  inhibition at 0.1 µM: 55.3%
  inhibition at 1 µM: 61.6%
[1]
  IC50: < 100 nM
  inhibition at 0.1 µM: 58%

## CNC(=O)c1cccc2cc(Oc3ccnc(NC(=O)c4ccc(N5CCN(C)CC5)cc4)c3)ccc12 [Compound S5]
SNU16 cells
  IC50: 13.8 nM
  inhibition at 0.01 µM: 60.4%
  inhibition at 0.1 µM: 60.1%
  inhibition at 1 µM: 57.8%
[1]
  inhibition at 0.1 µM: 87%

## CNC(=O)c1cccc2cc(Oc3ccnc(NC(=O)c4ccc(N5C[C@@H](C)N[C@@H](C)C5)cc4)n3)ccc12 [Compound S20]
[1]
  IC50: < 10 nM
  inhibition at 0.1 µM: 94%

## CNC(=O)c1cccc2cc(Oc3ccnc(NC(=O)c4ccc(OCCN5CC(F)C5)cc4)c3)ccc12 [Compound S1]
[1]
  IC50: < 100 nM
  inhibition at 0.1 µM: 72%

## CNC(=O)c1cccc2cc(Oc3ccnc(NC(=O)c4ccc(N5C[C@@H](C)N[C@@H](C)C5)cc4OC)c3)ccc12 [Compound S14]
[1]
  IC50: < 1000 nM
  inhibition at 0.1 µM: 40%

## CNC(=O)c1cccc2cc(Oc3ccnc(NC(=O)c4ccc(OCCN5CC(F)(F)C5)cc4)c3)ccc12 [Compound S2]
[1]
  IC50: < 100 nM
  inhibition at 0.1 µM: 80%

## CNC(=O)c1cccc2cc(Oc3ccnc(NC(=O)c4coc(N5CCN(C)CC5)n4)c3)ccc12 [Compound S18]
[1]
  IC50: < 100 nM
  inhibition at 0.1 µM: 65%

## COC(=O)c1cccc2cc(Oc3ccnc(NC(=O)c4ccc(N5C[C@@H](C)N[C@@H](C)C5)cc4)c3)ccc12 [Compound S24]
[1]
  IC50: < 10 nM
  inhibition at 0.1 µM: 87%

## CNC(=O)n1ccc2cc(Oc3ccnc(NC(=O)c4ccc(C5CCN(CCO)CC5)cc4)c3)c(OCCOC)cc21 [Compound E7090, reference compound]
[2]; 6.25 mg/Kg
  Relative tumor proliferation rate T/C (%): 49%
[2]; 25 mg/Kg
  Relative tumor proliferation rate T/C (%): 17%
[2]; 50 mg/Kg
  Relative tumor proliferation rate T/C (%): 18%
[3]; 6.25 mg/Kg
  Relative tumor proliferation rate T/C (%): 46%
[3]; 12.5 mg/Kg
  Relative tumor proliferation rate T/C (%): 21%
[3]; 25 mg/Kg
  Relative tumor proliferation rate T/C (%): 13%
[3]; 50 mg/Kg
  Relative tumor proliferation rate T/C (%): 8%
[4]; 12.5 mg/Kg
  Relative tumor proliferation rate T/C (%): 26%

## COc1cc(CCc2cc(NC(=O)c3ccc(N4CC(C)NC(C)C4)cc3)n[nH]2)cc(OC)c1 (centres unmarked) [AZD4547, reference compound]
[4]; 10 mg/kg po qd/21, d0
  Body weight (g) d0: 20.1 g
  TV (mm^3, mean ± SD) d0: 103 ± 18 mm^3
[4]; 10 mg/kg po qd/21, d21
  Body weight (g) d21: 22.4 g
  RTV (mean ± SD): 8.21 ± 3.91
  T/C (%): 59.80%
  TV (mm^3, mean ± SD) d21: 790 ± 247 mm^3
